From publication PMC9696794, “Synthesis and Antimicrobial Activity of Short Analogues of the Marine Antimicrobial Peptide Turgencin A: Effects of SAR Optimizations, Cys-Cys Cyclization and Lipopeptide Modifications” (International Journal of Molecular Sciences, 2022)
In brackets after ≈: the same amount, converted by molar mass. Where a SMILES comes first, the peptide text is derived from it. Bridges are numbered along the chain shown (N, C = ends). The star is where a group is joined. Lauroyl = CCCCCCCCCCCC(=O)*; Octanoyl = CCCCCCCC(=O)*

Key:
[1] = test system: E. coli NR698 (outer membrane permeable mutant, imp4213); test: microbe, parasite or virus in culture; settings: for MIC E. coli NR698 (mutant): MC4100 NR698 imp4213, deficient outer membrane
Method in brief: (§1)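 Broth microdilution in Mueller–Hinton medium, 2.5–3 × 10^4 CFU/mL inoculum, two-fold peptide dilutions from 256 to 1 µg/mL, 35 °C with OD595 read hourly for 24 h. MIC is the lowest concentration giving OD below 10% of the untreated growth control; run in triplicate.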

[2] = test system: E. coli MC4100 (wild type, WT); test: microbe, parasite or virus in culture; settings: for MIC E. coli MC4100 (WT): wild type
Method in brief: as §1

[3] = test system: P. aeruginosa (Pa, ATCC 27853); test: microbe, parasite or virus in culture; format: cell-based, Pseudomonas aeruginosa; settings: for Antimicrobial Activity (MIC) Gram − Pa: ATCC 27853, 24 h
Method in brief: (§2)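 Cultures grown in Mueller–Hinton broth were adjusted by OD600 to 2.5–3 × 10^4 CFU/mL and mixed with two-fold peptide dilutions from 256 to 1 µg/mL. Plates were incubated at 35 °C with OD595 monitored every hour for 24 h.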

[4] = test system: E. coli MC4100 (WT); test: Outer membrane permeability assay (NPN uptake fluorescence); format: cell-based, Escherichia coli
Method: The outer membrane of Gram-negative bacteria acts as a barrier for many hydrophobic and larger hydrophilic substances (>600 Da). However, some peptides can sensitize the outer membrane and thus facilitate the entry of various hydrophobic molecules. To explore if the peptides affect the outer membrane of E. coli MC4100, C12-cTurg-1 and C8-cTurg-2 were tested for their ability to enable the entry of the hydrophobic fluorescent probe 1-N-phenylnapthylamine (NPN, MW of 219 Da) (Figure 5). […] Normally, the hydrophobic NPN is excluded by E. coli bacteria, but it can enter the bacteria once the integrity of the outer membrane is compromised. […] Thus, the observed effects indicate that the outer membrane passage of C8-cTurg-2 was a rate-limiting step that was most likely preventing the peptide from reaching and accumulating in the inner membrane.
The permeability of the E. coli outer membrane was analysed by measuring increased fluorescence as kinetics of 1-N-phenylnaphthylamine (NPN, Sigma-Aldrich) uptake following the protocol described by, with minor modifications. Briefly, a single colony of E. coli MC4100 (WT) was suspended in MH medium and incubated overnight at 37 °C with shaking (225 rpm). The culture was diluted in MH medium and adjusted to OD600 = 0.1 and incubated at 37 °C until it reached an OD600 of 0.5. The cells were centrifuged and washed twice with an assay buffer (5 mM HEPES, 5 mM glucose, pH 7.2) and resuspended in the same buffer to a final OD600 of 1.0. E. coli MC4100 cells were mixed with 20 µM NPN. The assay set up was the same as for the membrane integrity and viability assay, using black round-bottom 96-well microtiter plates (Nunc) containing 10 µL of 2-fold dilutions of peptides (500 to 31.2 µg/mL). A volume of 90 µL of cell suspension with NPN was added to each well by the automated injector of the Synergy H1 Hybrid Reader. The fluorescence was immediately measured (well by well) at an excitation wavelength of 350 nm and an emission wavelength of 420 nm every second for 3 min. The relative fluorescence was calculated by normalizing the values from each time point with the negative control (Milli-Q water). CHX was included as a positive control.

[5] = test system: S. epidermidis RP62A (Se, ATCC 35984); test: microbe, parasite or virus in culture; format: cell-based, Staphylococcus epidermidis; settings: for Antimicrobial Activity (MIC) Gram + Se: ATCC 35984, 24 h
Method in brief: as §2

[6] = test system: B. subtilis (Bs, ATCC 23857); test: microbe, parasite or virus in culture; format: cell-based, Bacillus subtilis; settings: for Antimicrobial Activity (MIC) Gram + Bs: ATCC 23857, 24 h
Method in brief: as §2

[7] = test system: C. glutamicum (Cg, ATCC 13032); test: microbe, parasite or virus in culture; format: cell-based, Corynebacterium glutamicum; settings: for Antimicrobial Activity (MIC) Gram + Cg: ATCC 13032, 24 h
Method in brief: as §2

[8] = test system: C. albicans (Ca, ATCC 10231); test: microbe, parasite or virus in culture; format: cell-based, Candida albicans; settings: for Antimicrobial Activity (MIC) Fungi Ca: ATCC 10231, 48 h
Method in brief: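 Overnight cultures in potato dextrose broth with 2% glucose at 25–30 °C were diluted to approx. 4 × 10^5 spores/mL and mixed 1:1 with two-fold peptide dilutions plated at 256 to 1 µg/mL. After 48 h at room temperature, OD600 was read. MIC was the lowest concentration giving OD below 10% of the growth control, in triplicate.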

[9] = test system: S. aureus (Sa, ATCC 9144); test: microbe, parasite or virus in culture; format: cell-based, Staphylococcus aureus; settings: for Antimicrobial Activity (MIC) Gram + Sa: ATCC 9144, 24 h
Method in brief: as §2

Q: With `CCCCCCCCCCCC(=O)N[C@H]1CSSC[C@@H](C(=O)N[C@@H](CCCCN)C(=O)N[C@@H](CC(C)C)C(N)=O)NC(=O)[C@H](CCCCN)NC(=O)[C@H](Cc2c[nH]c3ccccc23)NC(=O)CNC(=O)CNC(=O)[C@@H]2CCCN2C(=O)[C@H](CCCCN)NC(=O)[C@H](CCCCN)NC(=O)CNC1=O` [Peptide C12-cTurg-1, C12 -(CGKKPGGWKC)KL-NH2] (Lauroyl-CGKKPGGWKCKL-NH2; disulfide 1-10) as the compound, how does the “MIC E. coli NR698 (mutant)” value [1] read?
A: 2 µg/mL (≈ 1.35 µM)

Q: What about the “MIC E. coli MC4100 (WT)” value [2] of the same compound?
A: 4 µg/mL (≈ 2.7 µM)

Q: What about the “Antimicrobial Activity (MIC) Gram − Pa” value [3] of the same compound?
A: 16 µg/mL

Q: What about the “increase in NPN fluorescence” value ([4]; E. coli MC4100, 25 to 50 µg/mL) of the same compound?
A: almost a four-fold increase

Q: What about the “effect on NPN fluorescence (outer membrane permeabilization)” value ([4]; not told) of the same compound?
A: increase the NPN fluorescence in a concentration-dependent manner

Q: What about the “Antimicrobial Activity (MIC) Gram + Se” value [5] of the same compound?
A: 4 µg/mL

Q: And the “Antimicrobial Activity (MIC) Gram + Bs” value [6]?
A: 2 µg/mL

Q: And the “Antimicrobial Activity (MIC) Gram + Cg” value [7]?
A: 2 µg/mL

Q: And the “Antimicrobial Activity (MIC) Fungi Ca” value [8]?
A: 64 µg/mL

Q: What about the “Antimicrobial Activity (MIC) Gram + Sa” value [9] of the same compound?
A: 4 µg/mL

Q: What does the source list for `CCCCCCCC(=O)N[C@H]1CSSC[C@@H](C(=O)N[C@@H](CCCCN)C(=O)N[C@@H](CC(C)C)C(N)=O)NC(=O)[C@H](CCCCN)NC(=O)[C@H](Cc2c[nH]c3ccccc23)NC(=O)CNC(=O)[C@H](Cc2c[nH]c3ccccc23)NC(=O)[C@H](Cc2c[nH]c3ccccc23)NC(=O)[C@H](CCCCN)NC(=O)[C@H](CCCCN)NC(=O)CNC1=O` [Peptide C8-cTurg-2, C8- (CGKKWWGWKC)KL-NH2] (Octanoyl-CGKKWWGWKCKL-NH2; disulfide 1-10)?
A: MIC E. coli NR698 (mutant) [1]: 2 µg/mL (≈ 1.21 µM); MIC E. coli MC4100 (WT) [2]: 8 µg/mL (≈ 4.86 µM); Antimicrobial Activity (MIC) Gram − Pa [3]: 8 µg/mL; effect on NPN fluorescence (outer membrane permeabilization) ([4]; not told): increase the NPN fluorescence in a concentration-dependent manner; Antimicrobial Activity (MIC) Gram + Se [5]: 4 µg/mL; Antimicrobial Activity (MIC) Gram + Bs [6]: 2 µg/mL; Antimicrobial Activity (MIC) Gram + Cg [7]: 2 µg/mL; Antimicrobial Activity (MIC) Fungi Ca [8]: 32 µg/mL; Antimicrobial Activity (MIC) Gram + Sa [9]: 4 µg/mL

Q: How did the MIC ([1]; Escherichia coli, read-out: MIC E. coli NR698 (mutant)) turn out when `[H]/N=C(\N/C(=N/[H])NCCCCCCNC(=N)NC(=N)Nc1ccc(Cl)cc1)Nc1ccc(Cl)cc1` [Chlorhexidine, reference compound] was run?
A: 0.3 µg/mL (≈ 0.594 µM)

Q: What about the MIC ([2]; Escherichia coli, read-out: MIC E. coli MC4100 (WT)) of the same compound?
A: 0.3 µg/mL (≈ 0.594 µM)

Q: And the MIC ([3]; Pseudomonas aeruginosa, ATCC27853, P. aeruginosa ATCC 27853, 24 h, read-out: Antimicrobial Activity (MIC) Gram − Pa)?
A: 6.3 µg/mL (≈ 12.5 µM)

Q: What about the “effect on NPN fluorescence (outer membrane permeabilization)” value ([4]; E. coli MC4100, 20 µM NPN, 3 min) of the same compound?
A: increase the NPN fluorescence in a concentration-dependent manner

Q: What about the MIC ([5]; Staphylococcus epidermidis, ATCC35984, S. epidermidis RP62A ATCC 35984, 24 h, read-out: Antimicrobial Activity (MIC) Gram + Se) of the same compound?
A: 1.6 µg/mL

Q: And the MIC ([6]; Bacillus subtilis, ATCC23857, B. subtilis ATCC 23857, 24 h, read-out: Antimicrobial Activity (MIC) Gram + Bs)?
A: 1.6 µg/mL

Q: And the MIC ([7]; Corynebacterium glutamicum, ATCC13032, C. glutamicum ATCC 13032, 24 h, read-out: Antimicrobial Activity (MIC) Gram + Cg)?
A: 0.8 µg/mL

Q: What about the MIC ([8]; Candida albicans, ATCC10231, C. albicans ATCC 10231, 48 h, read-out: Antimicrobial Activity (MIC) Fungi Ca) of the same compound?
A: 7.8 µg/mL

Q: What about the MIC ([9]; Staphylococcus aureus, ATCC9144, S. aureus ATCC 9144, 24 h, read-out: Antimicrobial Activity (MIC) Gram + Sa) of the same compound?
A: 1.6 µg/mL
